This passage reports Growth height and growth height relative results from patent US4257941A, “Polycyclic nitrogen-containing compounds” (BASF Aktiengesellschaft, priority 1976, dated 1981).

Holding throughout (format): in vivo
The subject of one test is Hordeum vulgare. Description: Growth height of young cereal plants (Example 11, Table A). The following applies: soil treatment. The text has this: (§1) The vessels used for the experiments were plastic pots having a volume of 1,130 cm^3 (Table A) or paraffined paper cups having a volume of 170 cm^3 (Table B). The pots and cups were filled with a sandy loam. The seeds of the test plants-separated by species-were sown shallow. Preemergence treatment (soil treatment) was effected immediately after sowing and before germination of the seeds. Seeds lying on the surface came into contact with the active ingredients. Postemergence treatment (leaf treatment) took place at an average growth height of the plants (depending on the rate of growth) of from 6 to 10 cm. The substances were suspended, emulsified or dissolved in water as diluent and applied by means of fine nozzles. The vessels were kept in the greenhouse in a temperature range of 12° C. to 25° C., and were regularly sprinkler irrigated for the duration of the experiment. The observation period was 6 to 8 weeks.

A further test has as its system Triticum aestivum. Described as above.
Description: as §1

In a further test the test system is Arachis hypogaea. Description: Growth-regulating action, postemergence, greenhouse (Example 35, Table 1). The following applies: for growth height relative: control 100.
Description: as §1
(§2) Further experiments were carried out in the greenhouse under the condition described in Example 11. […] As the plants which were examined liked the warmth (Eupghorbia geniculate, Arachis hypogaea, Cynodon dactylon), they were kept at from 20°-30° C. Cynodon dactylon from seed was cut once and the young growth treated postemergence.

A further test relates to Cynodon dactylon. The test is described as above. The following applies: for growth height relative: control 100.
Description: as §1, §2

On to `Clc1ccc(CN2N=NC3C4CC(C5N=NC45)C32)cc1` (stereo not drawn), for which the Growth height is 48 cm in the test on Hordeum vulgare (0.5 kg/ha); 44 cm with Hordeum vulgare (1.0 kg/ha); 41 cm in the test with Hordeum vulgare (2.0 kg/ha); 40 cm in the test with Triticum aestivum (leaf treatment, 0.5 kg/ha); 39 cm in the test with Triticum aestivum (leaf treatment, 1.0 kg/ha); 40 cm with Triticum aestivum (leaf treatment, 2.0 kg/ha). In addition, the Growth height with Triticum aestivum (soil treatment, 0.5 kg/ha) stood at 40 cm; with Triticum aestivum (soil treatment, 1.0 kg/ha), 40 cm; in the test with Triticum aestivum (soil treatment, 2.0 kg/ha), 30 cm.
With `Brc1cccc(N2N=NC3C4CC(C5N=NC45)C32)c1` (stereo not drawn) [drawing 366], the Growth height is recorded as 38 cm in the test with Hordeum vulgare (0.5 kg/ha); 30 cm in the test on Hordeum vulgare (1.0 kg/ha); 27 cm with Hordeum vulgare (2.0 kg/ha); 33 cm in the test on Triticum aestivum (leaf treatment, 0.5 kg/ha); 28 cm in the test on Triticum aestivum (leaf treatment, 1.0 kg/ha); 17 cm in the test with Triticum aestivum (leaf treatment, 2.0 kg/ha). Moreover, the Growth height was found to be 24 cm in the test with Triticum aestivum (soil treatment, 0.5 kg/ha); 20 cm in the test with Triticum aestivum (soil treatment, 1.0 kg/ha); 16 cm in the test on Triticum aestivum (soil treatment, 2.0 kg/ha).
Turning to `CN(C)NC(=O)CCC(=O)O` [drawing 437, reference compound], the Growth height in the test on Arachis hypogaea (0.25 kg/ha) came to 9 cm; with Arachis hypogaea (0.5 kg/ha), 8 cm; in the test on Arachis hypogaea (1.0 kg/ha), 7 cm; with Arachis hypogaea (2.0 kg/ha), 7 cm; with Cynodon dactylon (0.5 kg/ha), 12 cm; in the test with Cynodon dactylon (1.0 kg/ha), 12 cm. For the same molecule, in the test on Cynodon dactylon (2.0 kg/ha), the Growth height turned out to be 9 cm. Also, the growth height relative in the test on Arachis hypogaea (0.25 kg/ha) stood at 56; with Arachis hypogaea (0.5 kg/ha) it was 50; with Arachis hypogaea (1.0 kg/ha) it was 44; with Arachis hypogaea (2.0 kg/ha), 44; in the test on Cynodon dactylon (0.5 kg/ha), 109; in the test on Cynodon dactylon (1.0 kg/ha), 109. Further, the growth height relative in the test with Cynodon dactylon (2.0 kg/ha) is recorded as 82.
As to `Brc1ccccc1N1N=NC2C3CC(C4N=NC34)C21` (stereo not drawn) [drawing 365], the Growth height stood at 40 cm in the test on Hordeum vulgare (0.5 kg/ha); 42 cm in the test with Hordeum vulgare (1.0 kg/ha); 31 cm in the test on Hordeum vulgare (2.0 kg/ha); 35 cm in the test on Triticum aestivum (leaf treatment, 0.5 kg/ha); 33 cm in the test on Triticum aestivum (leaf treatment, 1.0 kg/ha); 33 cm with Triticum aestivum (leaf treatment, 2.0 kg/ha). Further, the Growth height in the test with Triticum aestivum (soil treatment, 0.5 kg/ha) is reported as 22 cm; in the test with Triticum aestivum (soil treatment, 1.0 kg/ha) it was 12 cm; in the test on Triticum aestivum (soil treatment, 2.0 kg/ha) it was 10 cm.
Turning to `Clc1cccc(N2N=NC3C4CC(C5N=NC45)C32)c1` (stereo not drawn) [drawing 364], the Growth height in the test with Hordeum vulgare (0.5 kg/ha) is 43 cm; in the test with Hordeum vulgare (1.0 kg/ha) it was 40 cm; with Hordeum vulgare (2.0 kg/ha), 30 cm; in the test with Triticum aestivum (leaf treatment, 0.25 kg/ha), 29 cm; with Triticum aestivum (leaf treatment, 0.5 kg/ha), 25 cm; in the test with Triticum aestivum (leaf treatment, 1.0 kg/ha) it was 13 cm. Further, the Growth height was found to be 12 cm in the test on Triticum aestivum (leaf treatment, 2.0 kg/ha); 26 cm with Triticum aestivum (soil treatment, 0.25 kg/ha); 15 cm with Triticum aestivum (soil treatment, 0.5 kg/ha).
`Clc1ccc(N2N=NC3C4CC(C5N=NC45)C32)c(Cl)c1` (stereo not drawn): the Growth height came out at 40 cm in the test with Hordeum vulgare (0.5 kg/ha); 38 cm with Hordeum vulgare (1.0 kg/ha); 53 cm in the test with Hordeum vulgare (2.0 kg/ha); 40 cm in the test with Triticum aestivum (leaf treatment, 0.5 kg/ha); 34 cm in the test on Triticum aestivum (leaf treatment, 1.0 kg/ha); 35 cm in the test on Triticum aestivum (leaf treatment, 2.0 kg/ha). Further, the Growth height came to 25 cm in the test with Triticum aestivum (soil treatment, 0.5 kg/ha); 25 cm in the test on Triticum aestivum (soil treatment, 1.0 kg/ha); 20 cm in the test with Triticum aestivum (soil treatment, 2.0 kg/ha).
As to `O=[N+]([O-])c1cccc(N2N=NC3C4CC(C5N=NC45)C32)c1` (stereo not drawn), the Growth height with Hordeum vulgare (0.5 kg/ha) stood at 36 cm; with Hordeum vulgare (1.0 kg/ha) it was 36 cm; in the test with Hordeum vulgare (2.0 kg/ha), 29 cm; in the test on Triticum aestivum (leaf treatment, 0.5 kg/ha), 28 cm; with Triticum aestivum (leaf treatment, 1.0 kg/ha), 28 cm; with Triticum aestivum (leaf treatment, 2.0 kg/ha) it was 17 cm. Also, the Growth height with Triticum aestivum (soil treatment, 0.5 kg/ha) came out at 26 cm; in the test with Triticum aestivum (soil treatment, 1.0 kg/ha), 26 cm; in the test with Triticum aestivum (soil treatment, 2.0 kg/ha), 13 cm.
For the molecule `FC(F)(F)c1cccc(N2C3C4CC(C5N=NC45)C32)c1` (stereo not drawn) [drawing 434], the Growth height with Arachis hypogaea (0.25 kg/ha) is on record as 8 cm; in the test with Arachis hypogaea (0.5 kg/ha), 8 cm; in the test with Arachis hypogaea (1.0 kg/ha), 7.5 cm; in the test on Arachis hypogaea (2.0 kg/ha) it was 5 cm; in the test on Cynodon dactylon (0.5 kg/ha), 4 cm; in the test on Cynodon dactylon (1.0 kg/ha), 4 cm. In the test with Cynodon dactylon (2.0 kg/ha), the Growth height turned out to be 3 cm. Besides, the growth height relative in the test with Arachis hypogaea (0.25 kg/ha) was 50; with Arachis hypogaea (0.5 kg/ha) it was 50; in the test on Arachis hypogaea (1.0 kg/ha), 47; in the test with Arachis hypogaea (2.0 kg/ha), 31; in the test with Cynodon dactylon (0.5 kg/ha) it was 36; with Cynodon dactylon (1.0 kg/ha), 36. The same molecule yielded a growth height relative in the test on Cynodon dactylon (2.0 kg/ha) of 27.
As for `FC(F)(F)c1ccc(Cl)c(N2N=NC3C4CC(C5N=NC45)C32)c1` (stereo not drawn) [drawing 361], the Growth height in the test with Hordeum vulgare (0.5 kg/ha) is reported as 40 cm; in the test with Hordeum vulgare (1.0 kg/ha), 39 cm; in the test on Hordeum vulgare (2.0 kg/ha) it was 38 cm; with Triticum aestivum (leaf treatment, 0.5 kg/ha) it was 42 cm; with Triticum aestivum (leaf treatment, 1.0 kg/ha), 27 cm; with Triticum aestivum (leaf treatment, 2.0 kg/ha), 20 cm. Further, the Growth height in the test with Triticum aestivum (soil treatment, 0.5 kg/ha) is on record as 16 cm; in the test with Triticum aestivum (soil treatment, 1.0 kg/ha), 15 cm; with Triticum aestivum (soil treatment, 2.0 kg/ha), 0 cm.
For `Clc1ccc(N2C3C4CC(C5N=NC45)C32)cc1Cl` (stereo not drawn), the Growth height in the test on Arachis hypogaea (0.5 kg/ha) came out at 14 cm; in the test with Arachis hypogaea (1.0 kg/ha) it was 14 cm; in the test with Arachis hypogaea (2.0 kg/ha), 10 cm; with Cynodon dactylon (0.5 kg/ha) it was 7 cm; in the test on Cynodon dactylon (1.0 kg/ha), 6 cm; in the test with Cynodon dactylon (2.0 kg/ha), 6 cm. The growth height relative with Arachis hypogaea (0.5 kg/ha) was found to be 87; with Arachis hypogaea (1.0 kg/ha) it was 87; in the test with Arachis hypogaea (2.0 kg/ha) it was 62; with Cynodon dactylon (0.5 kg/ha), 64; in the test on Cynodon dactylon (1.0 kg/ha), 54; in the test with Cynodon dactylon (2.0 kg/ha), 54.
Take `c1cc2sncc2cc1N1N=NC2C3CC(C4N=NC34)C21` (stereo not drawn) [drawing 368]: the Growth height in the test on Hordeum vulgare (0.5 kg/ha) was 36 cm; in the test with Hordeum vulgare (1.0 kg/ha), 39 cm; in the test with Hordeum vulgare (2.0 kg/ha), 31 cm; in the test with Triticum aestivum (leaf treatment, 0.25 kg/ha) it was 30 cm; in the test with Triticum aestivum (leaf treatment, 0.5 kg/ha), 23 cm; in the test on Triticum aestivum (leaf treatment, 1.0 kg/ha) it was 26 cm. Further, the Growth height is recorded as 20 cm in the test with Triticum aestivum (leaf treatment, 2.0 kg/ha); 32 cm in the test with Triticum aestivum (soil treatment, 0.25 kg/ha); 28 cm in the test with Triticum aestivum (soil treatment, 0.5 kg/ha); 20 cm with Triticum aestivum (soil treatment, 1.0 kg/ha); 23 cm in the test with Triticum aestivum (soil treatment, 2.0 kg/ha).
As for `Clc1ccc(N2N=NC3C4CC(C5NNC45)C32)cc1` (stereo not drawn) [drawing 369], the Growth height is listed as 36 cm in the test with Hordeum vulgare (0.25 kg/ha); 30 cm in the test with Hordeum vulgare (0.5 kg/ha); 18 cm in the test with Hordeum vulgare (1.0 kg/ha); 14 cm with Hordeum vulgare (2.0 kg/ha); 36 cm in the test on Triticum aestivum (leaf treatment, 0.25 kg/ha); 30 cm in the test with Triticum aestivum (leaf treatment, 0.5 kg/ha). The Growth height with Triticum aestivum (leaf treatment, 1.0 kg/ha) worked out at 28 cm; with Triticum aestivum (leaf treatment, 2.0 kg/ha), 25 cm; with Triticum aestivum (soil treatment, 0.25 kg/ha) it was 22 cm; in the test on Triticum aestivum (soil treatment, 0.5 kg/ha), 12 cm; in the test with Triticum aestivum (soil treatment, 1.0 kg/ha) it was 6 cm; with Triticum aestivum (soil treatment, 2.0 kg/ha), 7 cm.
For the molecule `c1cc2sncc2cc1N1C2C3CC(C4N=NC34)C21` (stereo not drawn), the Growth height with Arachis hypogaea (0.5 kg/ha) is on record as 13 cm; in the test with Arachis hypogaea (1.0 kg/ha), 12 cm; with Arachis hypogaea (2.0 kg/ha), 9 cm; in the test on Cynodon dactylon (0.5 kg/ha) it was 4 cm; in the test with Cynodon dactylon (1.0 kg/ha) it was 4 cm; in the test on Cynodon dactylon (2.0 kg/ha) it was 4 cm. The growth height relative was 81 in the test on Arachis hypogaea (0.5 kg/ha); 75 with Arachis hypogaea (1.0 kg/ha); 56 in the test on Arachis hypogaea (2.0 kg/ha); 36 with Cynodon dactylon (0.5 kg/ha); 36 with Cynodon dactylon (1.0 kg/ha); 36 in the test on Cynodon dactylon (2.0 kg/ha).
